Measurements taken from PMC10698194 (Nature Communications, 2023).
“And” between values parts separate entries of the source, which are not always exact repeats. Identical values can stand only once. Like-named read-outs stand apart in the source and are kept apart here. Bridge positions count the residues as written; N and C are the ends. Square brackets hold non-standard residues; d marks the D form. Peptide text beside a SMILES is read from it. * marks the point of attachment. X1 = C=CCN1CC[C@]23c4c5ccc(O)c4O[C@H]2[C@H](N*)CC[C@@]3(O)[C@H]1C5

Experiments:
[1] = molecular target: T1, human KOR E209A (Homo sapiens, UniProt P41145, E209A); format: cell-based; conditions: KOR(E209A), Log [drug], individual replicates
T1 construct: FLAG; expressed in transfected cells; host or cells: HEK293 / HEK293T, transient

[2] = molecular target: T2, human KOR E297A (Homo sapiens, UniProt P41145, E297A); assay: BRET β-arrestin-2 biosensor assay; format: cell-based; conditions: KOR(E297A), Log [drug], individual replicates
T2 construct: FLAG; expressed in transfected cells; host or cells: HEK293T

[3] = molecular target: T3, human KOR L309A (Homo sapiens, UniProt P41145, L309A); format: cell-based; conditions: KOR(L309A), Log [drug], individual replicates
T3 construct: FLAG; expressed in transfected cells; host or cells: HEK293T

[4] = molecular target: T4, human KOR D138A (Homo sapiens, UniProt P41145, D138A); assay: cAMP inhibition assay normalized to salvinorin A; format: cell-based
T4 construct: expressed in transfected cells

[5] = molecular target: T2, human KOR E297A; format: cell-based; conditions: KOR(E297A), Log [drug], individual replicates
[6] = molecular target: T5, mouse KOR, Gαi2 (Mus musculus, UniProt P33534); assay: TRUPATH BRET G protein assay, Gαi2; format: cell-based
T5 construct: expressed in transfected cells; host or cells: HEK293T (ATCC, CRL-3216), transient

[7] = molecular target: human KOR (Homo sapiens, UniProt P41145); assay: cell-based; set-up: expressed in transfected cells; host or cells: HEK293, transient
[8] = molecular target: T6, human MOR (Homo sapiens, UniProt P35372); assay: [35S]GTPγS binding assay, CHO membranes; format: biochemical; conditions: relative to DAMGO
T6 construct: expressed in transfected cells
T6 sequence (P35372 whole entry): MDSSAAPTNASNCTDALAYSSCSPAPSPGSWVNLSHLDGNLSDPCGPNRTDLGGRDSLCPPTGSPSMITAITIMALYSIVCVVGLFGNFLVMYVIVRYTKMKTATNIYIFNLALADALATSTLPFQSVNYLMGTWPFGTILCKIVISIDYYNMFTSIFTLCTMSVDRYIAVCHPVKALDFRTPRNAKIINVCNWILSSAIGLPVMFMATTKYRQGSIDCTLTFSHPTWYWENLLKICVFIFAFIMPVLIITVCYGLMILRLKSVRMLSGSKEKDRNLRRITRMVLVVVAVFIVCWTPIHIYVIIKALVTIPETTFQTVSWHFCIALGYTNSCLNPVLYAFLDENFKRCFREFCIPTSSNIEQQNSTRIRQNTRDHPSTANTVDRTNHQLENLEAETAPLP

T5 sequence (P33534 whole entry): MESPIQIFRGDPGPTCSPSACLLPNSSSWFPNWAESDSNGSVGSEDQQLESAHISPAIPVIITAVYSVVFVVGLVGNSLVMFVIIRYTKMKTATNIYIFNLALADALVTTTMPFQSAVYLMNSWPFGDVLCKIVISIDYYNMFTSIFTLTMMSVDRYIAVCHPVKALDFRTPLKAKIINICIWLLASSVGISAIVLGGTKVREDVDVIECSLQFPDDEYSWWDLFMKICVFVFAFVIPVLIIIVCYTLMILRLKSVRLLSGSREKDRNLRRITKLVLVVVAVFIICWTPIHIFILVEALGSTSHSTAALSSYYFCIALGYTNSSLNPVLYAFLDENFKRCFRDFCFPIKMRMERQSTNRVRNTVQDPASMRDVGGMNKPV
T1 sequence (P41145 whole entry E209A): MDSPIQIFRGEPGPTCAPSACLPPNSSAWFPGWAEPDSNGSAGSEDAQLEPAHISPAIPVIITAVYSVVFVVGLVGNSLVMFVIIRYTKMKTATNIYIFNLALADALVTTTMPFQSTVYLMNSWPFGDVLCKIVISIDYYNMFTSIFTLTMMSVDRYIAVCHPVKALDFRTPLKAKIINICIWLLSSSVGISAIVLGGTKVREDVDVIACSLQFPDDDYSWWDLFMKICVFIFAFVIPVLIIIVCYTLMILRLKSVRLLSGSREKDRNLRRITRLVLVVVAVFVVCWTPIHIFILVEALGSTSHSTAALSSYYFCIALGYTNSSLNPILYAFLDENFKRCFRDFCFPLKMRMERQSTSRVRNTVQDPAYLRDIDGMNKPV
T4 sequence (P41145 whole entry D138A): as the sequence (P41145 whole entry E209A) above, with D138A, A209E counted along it
T3 sequence (P41145 whole entry L309A): as the sequence (P41145 whole entry E209A) above, with A209E, L309A counted along it
Sequence of human KOR (P41145 whole entry): as the sequence (P41145 whole entry E209A) above, with A209E counted along it
T2 sequence (P41145 whole entry E297A): as the sequence (P41145 whole entry E209A) above, with A209E, E297A counted along it

## C=CCN1CC[C@]23c4c5ccc(O)c4O[C@H]2[C@H](NC(=O)[C@@H](Cc2ccccc2)NC(=O)[C@@H](NC(=O)[C@@H]2CSCC(=O)N[C@@H](Cc4ccc(O)cc4)C(=O)N[C@@H](C)C(=O)N[C@H](Cc4ccc(O)cc4)C(=O)N[C@@H]([C@@H](C)O)C(=O)N[C@@H]([C@@H](C)O)C(=O)N2)[C@@H](C)O)CC[C@@]3(O)[C@H]1C5 [DNCP-βNalA(1)] ({CH2CO}-YA[dY]TTCT[dF]-X1; thioether N-6)
[1]; M = -6
  Gi1-activation: 95.0321
[1]; M = -7
  Gi1-activation: 98.4538 and 95.0321 and 92.9731 (2×)
[1]; M = -9
  Gi1-activation: 93.8915 and 90.4927
[2]; M = -5
  βarrestin2-reruitment: 64.952 and 70.3776 and 70.3029
[2]; M = -6
  βarrestin2-reruitment: 64.952 (2×) and 65.8365 and 61.2954 and 65.7763 and 64.7423
[2]; M = -7
  βarrestin2-reruitment: 57.4606 and 53.3486 and 51.3006 and 53.3686 and 55.3202
[2]; M = -8
  βarrestin2-reruitment: 54.25 and 56.7544 and 54.4026 and 55.3202
[2]; M = -9
  βarrestin2-reruitment: 42.4779 and 34.0491 and 29.508 and 29.5871 and 25.4512 and 32.8461
[2]; M = -10
  βarrestin2-reruitment: 4.532 and 6.8027 and 4.772
[3]; M = -5
  Gi1-activation: 98.4884 and 94.3563
[3]; M = -6
  Gi1-activation: 92.9882 and 93.5382 and 87.9287
[3]; M = -7
  Gi1-activation: 91.3288 and 89.81 and 94.9619
[3]; M = -8
  Gi1-activation: 94.9619 and 94.0882
[4]; Log [ligand] (M) -5
  response at D138A, Figure S26: 110.03 and 108.68 and 121.152 and 120.937 and 117.964 and 108.941 and 117.457
[4]; Log [ligand] (M) -6
  response at D138A, Figure S26: 96.1567 and 103.986 and 100.687 and 108.287 and 104.111 and 103.774 and 93.2795 and 106.739
[4]; Log [ligand] (M) -7
  response at D138A, Figure S26: 95.0352 and 99.2926 and 97.756 and 110.621 and 103.099 and 111.681 and 84.8048 and 93.7365
[4]; Log [ligand] (M) -8
  response at D138A, Figure S26: 92.5638 and 91.2347 and 98.8959 and 103.021 and 118.301 and 103.099 and 100.466 and 95.1074
[4]; Log [ligand] (M) -9
  response at D138A, Figure S26: 68.4109 and 66.6248 and 86.0309 and 72.0259 and 98.5019 and 110.7 and 66.4429 and 85.6772
[5]; M = -5
  Gi1-activation: 95.0144
[5]; M = -6
  Gi1-activation: 93.9606 and 93.3336 and 93.3709
[5]; M = -7
  Gi1-activation: 92.7066 and 94.3563
[5]; M = -8
  Gi1-activation: 92.7066 and 93.9606 and 93.6983

## CC(C)=CCN1CCC2(C)c3cc(O)ccc3CC1C2C (centres unmarked) [Pentazocine, pentazocine]
[6]; Log [ligand] (M) -5
  Gαi2, normalized response (single replicate values): 63.0631 and 33.772 and 78.2944 and 66.7992 and -8.535 and 43.2571 and 15.0067 and 36.1153
[6]; Log [ligand] (M) -6
  Gαi2, normalized response (single replicate values): 81.8094 and 43.1452 and 67.7496 and 22.5401 and 66.7992 and 32.8986 (2×) and 41.9735
[6]; Log [ligand] (M) -7
  Gαi2, normalized response (single replicate values): 33.772 (2×) and 29.0855 and 9.357 and 40.4321 and 39.4904 and 59.2657 and 49.0034
[6]; Log [ligand] (M) -8
  Gαi2, normalized response (single replicate values): 36.1153 and 16.1974 and 29.0855 and -23.6023 and 39.4904 and 26.3069 and 33.8403 and 44.3168
[6]; Log [ligand] (M) -9
  Gαi2, normalized response (single replicate values): -10.7504 and 16.1974 and 32.6004 and -17.0105 and 12.1816 and 27.2485 and 41.3738 and 15.0258
[6]; Log [ligand] (M) -10
  Gαi2, normalized response (single replicate values): -1.377 and -15.4369 and -0.06023 (2×) and -7.594 and -5.71 and -13.0937
[6]; Log [ligand] (M) -11
  Gαi2, normalized response (single replicate values): -3.721 and -2.549 and 15.0258 and 1.823 and -26.4273 and -45.2609 and 40.4321 and -15.4369
[6]; Log [ligand] (M) -12
  Gαi2, normalized response (single replicate values): 20.884 and 5.653 and -14.2653 and 5.59 and 13.1233 and -22.6606 and 37.607 and -1.377
[6]; source data of Figure 3j, U50,488 about 100
  Gαi2 (Figure 3j): 42.2346
[7]
  EC50: 1.01 µM
  β-arrestin-2 (Figure 3j): 38
[7]; HEK293, read-out: Emax β-arrestin-1 recruitment
  Emax: 38 ± 24%

## DAMGO
[8]
  Emax (%) MOR: 100%
